Assay results published in publication PMC11831560, “Development of the Pyrido[2,3-d]pyrimidin-7(8H)-one Scaffold toward Potent and Selective NUAK1 Inhibitors” (ACS Medicinal Chemistry Letters, 2025).
Where “and” joins values, the source holds several entries; their conditions need not be identical. Equal entries are not always repeated.

Columns and labels:
Assay in all cases: Kinase panel radiometric filter binding (33P-ATP)
Type in all cases: biochemical
Parameters in all cases: % activity remaining: dose or concentration left out as unconfirmed
[1] = target: TrkA (Homo sapiens, UniProt P04629); conditions: for % activity remaining: TrkA
Procedure: (§1) Table S4: AMPKA kinase activity data (ADP-Glo assay)
(§2) Compound pIC50 (Fold selectivity
(§3) Table S5. Kinase selectivity screening for 9 and 24 at 1 µM against a general kinase panel of 140 targets
(§4) in radiometric filter binding assay using 33P-γ−ATP at the MRC PPU International Centre for Kinase
(§5) Profiling, University of Dundee. pIC50 values were determined for compounds with <20% activity
(§6) Kinase activity s.d. pIC50 activity s.d. pIC50

[2] = target: T1, MARK1 (Homo sapiens, UniProt Q9P0L2); conditions: for % activity remaining: MARK1
T1 construct: purchased MRC PPU
Procedure: as §1, §2, §3, §4, §5, §6

[3] = target: T2, JAK3 (Homo sapiens, UniProt P52333); conditions: for % activity remaining: JAK3
T2 sequence (P52333 1-1124): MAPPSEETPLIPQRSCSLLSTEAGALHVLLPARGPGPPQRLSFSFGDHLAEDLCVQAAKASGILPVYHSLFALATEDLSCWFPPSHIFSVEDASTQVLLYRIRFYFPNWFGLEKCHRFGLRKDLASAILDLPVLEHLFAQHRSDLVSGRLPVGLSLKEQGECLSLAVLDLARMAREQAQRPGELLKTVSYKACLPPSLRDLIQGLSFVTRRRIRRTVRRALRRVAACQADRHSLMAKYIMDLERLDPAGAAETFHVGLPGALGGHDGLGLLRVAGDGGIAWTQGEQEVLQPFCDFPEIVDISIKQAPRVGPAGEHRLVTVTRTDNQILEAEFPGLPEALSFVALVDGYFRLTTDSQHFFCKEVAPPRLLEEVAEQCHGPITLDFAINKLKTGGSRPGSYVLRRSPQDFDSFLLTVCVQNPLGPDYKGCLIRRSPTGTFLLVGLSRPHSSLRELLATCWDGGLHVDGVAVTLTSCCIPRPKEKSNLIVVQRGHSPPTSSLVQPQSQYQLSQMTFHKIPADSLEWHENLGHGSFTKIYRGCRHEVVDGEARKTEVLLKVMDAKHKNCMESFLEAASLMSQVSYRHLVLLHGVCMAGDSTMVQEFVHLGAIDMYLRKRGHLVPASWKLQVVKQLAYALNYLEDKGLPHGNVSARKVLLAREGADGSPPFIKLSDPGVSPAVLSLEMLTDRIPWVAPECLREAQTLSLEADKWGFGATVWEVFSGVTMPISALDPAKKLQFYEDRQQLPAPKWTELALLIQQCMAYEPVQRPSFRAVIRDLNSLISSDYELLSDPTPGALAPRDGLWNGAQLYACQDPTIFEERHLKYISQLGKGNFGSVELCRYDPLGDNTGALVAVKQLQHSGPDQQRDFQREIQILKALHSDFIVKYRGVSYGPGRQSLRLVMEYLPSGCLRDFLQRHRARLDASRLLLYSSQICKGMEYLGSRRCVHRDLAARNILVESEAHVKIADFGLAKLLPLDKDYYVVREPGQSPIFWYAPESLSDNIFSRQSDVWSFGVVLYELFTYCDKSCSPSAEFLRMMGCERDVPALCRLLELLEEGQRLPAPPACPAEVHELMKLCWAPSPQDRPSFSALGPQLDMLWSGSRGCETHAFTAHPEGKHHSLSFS
Procedure: as §1, §2, §3, §4, §5, §6

[4] = target: T3, TAK1 (Homo sapiens, UniProt O43318); conditions: for % activity remaining: TAK1
T3 sequence (O43318 1-303 limits assumed): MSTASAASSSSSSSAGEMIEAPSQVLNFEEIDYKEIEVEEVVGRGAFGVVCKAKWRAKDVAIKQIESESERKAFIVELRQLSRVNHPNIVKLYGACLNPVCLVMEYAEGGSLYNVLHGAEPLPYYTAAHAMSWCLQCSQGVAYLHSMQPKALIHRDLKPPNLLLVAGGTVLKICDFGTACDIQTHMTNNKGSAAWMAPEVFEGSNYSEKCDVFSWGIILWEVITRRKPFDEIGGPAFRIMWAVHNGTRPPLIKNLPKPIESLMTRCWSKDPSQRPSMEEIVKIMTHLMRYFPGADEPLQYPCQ
Procedure: as §1, §2, §3, §4, §5, §6

[5] = target: MELK (Homo sapiens, UniProt Q14680); conditions: for % activity remaining: MELK
Procedure: as §1, §2, §3, §4, §5, §6

[6] = target: T4, ULK2 (Homo sapiens, UniProt Q8IYT8); conditions: for % activity remaining: ULK2
T4 sequence (Q8IYT8 1-1036): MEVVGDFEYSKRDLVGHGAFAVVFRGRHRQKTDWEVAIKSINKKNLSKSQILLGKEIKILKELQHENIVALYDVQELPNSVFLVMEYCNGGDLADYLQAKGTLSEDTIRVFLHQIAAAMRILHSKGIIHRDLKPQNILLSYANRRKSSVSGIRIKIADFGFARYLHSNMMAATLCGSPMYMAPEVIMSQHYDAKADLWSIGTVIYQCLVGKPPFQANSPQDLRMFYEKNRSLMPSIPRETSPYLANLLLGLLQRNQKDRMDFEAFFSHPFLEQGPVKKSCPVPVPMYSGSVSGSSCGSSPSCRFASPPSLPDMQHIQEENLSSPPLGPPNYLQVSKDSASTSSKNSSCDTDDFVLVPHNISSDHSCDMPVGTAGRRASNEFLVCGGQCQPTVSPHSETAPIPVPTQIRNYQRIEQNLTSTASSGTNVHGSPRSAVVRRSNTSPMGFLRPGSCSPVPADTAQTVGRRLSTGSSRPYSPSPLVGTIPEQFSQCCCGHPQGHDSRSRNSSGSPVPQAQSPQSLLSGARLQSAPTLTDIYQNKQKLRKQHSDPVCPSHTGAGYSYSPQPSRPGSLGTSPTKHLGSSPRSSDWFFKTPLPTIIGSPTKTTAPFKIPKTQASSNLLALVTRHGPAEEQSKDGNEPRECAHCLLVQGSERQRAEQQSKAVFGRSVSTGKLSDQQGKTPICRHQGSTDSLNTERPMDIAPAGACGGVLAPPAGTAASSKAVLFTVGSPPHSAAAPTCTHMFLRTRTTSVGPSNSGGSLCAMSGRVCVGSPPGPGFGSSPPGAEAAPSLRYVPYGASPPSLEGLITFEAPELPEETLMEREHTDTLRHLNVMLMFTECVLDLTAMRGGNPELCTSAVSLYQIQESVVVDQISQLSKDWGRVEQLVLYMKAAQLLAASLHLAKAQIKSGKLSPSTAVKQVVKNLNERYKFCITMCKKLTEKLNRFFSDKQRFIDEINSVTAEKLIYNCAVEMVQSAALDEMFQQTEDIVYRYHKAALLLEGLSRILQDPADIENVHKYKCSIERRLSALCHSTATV
Procedure: as §1, §2, §3, §4, §5, §6

[7] = radiometric filter binding panel

MELK, sequence (Q14680 whole entry, species assumed): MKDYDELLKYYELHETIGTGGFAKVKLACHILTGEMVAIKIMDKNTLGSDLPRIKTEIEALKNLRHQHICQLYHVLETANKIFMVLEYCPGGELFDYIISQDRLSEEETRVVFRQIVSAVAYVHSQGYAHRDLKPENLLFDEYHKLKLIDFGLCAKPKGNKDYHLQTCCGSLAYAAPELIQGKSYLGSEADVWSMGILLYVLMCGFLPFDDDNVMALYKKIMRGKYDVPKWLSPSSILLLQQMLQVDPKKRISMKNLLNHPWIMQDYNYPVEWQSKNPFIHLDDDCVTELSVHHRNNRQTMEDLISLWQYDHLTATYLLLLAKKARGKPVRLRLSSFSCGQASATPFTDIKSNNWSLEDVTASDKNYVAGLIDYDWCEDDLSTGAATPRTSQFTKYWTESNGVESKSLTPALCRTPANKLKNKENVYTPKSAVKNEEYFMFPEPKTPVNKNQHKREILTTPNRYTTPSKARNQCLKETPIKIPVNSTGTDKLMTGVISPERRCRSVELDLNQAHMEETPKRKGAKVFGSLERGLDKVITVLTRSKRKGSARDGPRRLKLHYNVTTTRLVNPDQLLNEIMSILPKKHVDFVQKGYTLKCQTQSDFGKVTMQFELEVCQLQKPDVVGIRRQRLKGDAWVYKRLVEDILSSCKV
TrkA, sequence (P04629 33-796, species assumed): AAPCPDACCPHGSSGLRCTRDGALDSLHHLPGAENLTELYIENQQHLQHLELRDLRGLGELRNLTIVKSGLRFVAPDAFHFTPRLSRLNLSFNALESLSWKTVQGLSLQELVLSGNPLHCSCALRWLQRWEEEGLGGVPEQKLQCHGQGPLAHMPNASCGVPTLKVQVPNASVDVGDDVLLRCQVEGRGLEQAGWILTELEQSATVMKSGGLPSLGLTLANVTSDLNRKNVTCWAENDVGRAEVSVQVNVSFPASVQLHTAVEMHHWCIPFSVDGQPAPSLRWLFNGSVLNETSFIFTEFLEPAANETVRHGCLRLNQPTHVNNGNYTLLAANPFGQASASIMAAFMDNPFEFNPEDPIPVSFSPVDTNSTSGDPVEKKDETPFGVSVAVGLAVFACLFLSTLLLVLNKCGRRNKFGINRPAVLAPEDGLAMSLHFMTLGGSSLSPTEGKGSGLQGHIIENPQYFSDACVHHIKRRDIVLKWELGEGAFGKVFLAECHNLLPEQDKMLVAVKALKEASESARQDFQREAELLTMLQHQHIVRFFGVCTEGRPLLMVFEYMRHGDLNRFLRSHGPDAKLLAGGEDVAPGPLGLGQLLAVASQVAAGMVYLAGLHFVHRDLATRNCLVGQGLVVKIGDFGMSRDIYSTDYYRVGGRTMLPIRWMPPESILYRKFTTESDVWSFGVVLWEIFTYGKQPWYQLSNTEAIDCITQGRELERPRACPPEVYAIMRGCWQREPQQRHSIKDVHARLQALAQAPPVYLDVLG
T1 sequence (Q9P0L2 whole entry): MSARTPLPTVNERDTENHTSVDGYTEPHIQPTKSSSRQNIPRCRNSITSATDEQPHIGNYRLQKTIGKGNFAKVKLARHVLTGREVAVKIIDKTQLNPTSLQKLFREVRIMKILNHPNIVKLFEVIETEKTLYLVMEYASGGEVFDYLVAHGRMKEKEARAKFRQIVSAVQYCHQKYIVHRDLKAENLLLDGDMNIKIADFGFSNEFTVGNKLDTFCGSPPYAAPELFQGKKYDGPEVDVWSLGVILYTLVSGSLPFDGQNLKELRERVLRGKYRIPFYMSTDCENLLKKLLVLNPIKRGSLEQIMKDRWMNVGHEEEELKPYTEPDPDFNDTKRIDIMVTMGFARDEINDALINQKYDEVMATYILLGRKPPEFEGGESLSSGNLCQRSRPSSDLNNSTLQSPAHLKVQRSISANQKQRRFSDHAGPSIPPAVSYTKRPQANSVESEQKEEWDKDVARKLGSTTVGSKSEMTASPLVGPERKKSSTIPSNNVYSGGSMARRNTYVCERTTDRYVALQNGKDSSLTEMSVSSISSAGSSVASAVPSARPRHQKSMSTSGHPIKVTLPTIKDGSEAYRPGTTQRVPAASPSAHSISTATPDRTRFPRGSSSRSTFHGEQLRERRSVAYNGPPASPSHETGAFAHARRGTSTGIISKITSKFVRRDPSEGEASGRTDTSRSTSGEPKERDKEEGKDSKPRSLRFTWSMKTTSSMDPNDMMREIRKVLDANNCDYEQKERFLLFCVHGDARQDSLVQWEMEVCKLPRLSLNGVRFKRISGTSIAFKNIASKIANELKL

SMILES	IC50 [1] [nM]	% activity remaining [1] [%]	TrkA pIC50 [1, 7]	% activity remaining [2] [%]	inhibition at 1 µM ([2]; at 1 μM, radiometric filter binding assay, Dundee, read-out: MARK1 single point % inhibition) [%]	% activity remaining [3] [%]	% activity remaining [4] [%]	IC50 ([4]; radiometric filter binding panel, read-out: TAK1 pIC50 (converted)) [nM]	% activity remaining [5] [%]	MELK pIC50 [5, 7]	IC50 ([5]; radiometric filter binding panel, read-out: MELK pIC50 (converted)) [nM]	% activity remaining [6] [%]	ULK2 pIC50 [6, 7]	JAK3 pIC50 [3, 7]	IC50 ([3]; radiometric filter binding panel, read-out: JAK3 pIC50 (converted)) [nM]
Cc1cc(=O)n(C2CCCC2)c2nc(Nc3ccc(N4CC5CC(C4)N5C)cc3)ncc12 [Compound 9]	97.7	12	> 7	56	44	22	6	209	6	> 7	53.7	17	7.4 and 7.39	–	–
CN1C2CC1CN(c1ccc(Nc3ncc4ccn(CC5CCOCC5)c4n3)cc1)C2 [Compound 24]	–	72	–	94	–	7	110	–	95	–	–	75	–	7.6	23.4
